In paper PMC11054282, “Structural Investigations on 2-Amidobenzimidazole Derivatives as New Inhibitors of Protein Kinase CK1 Delta” (Pharmaceuticals, 2024):
“And” between values parts separate entries of the source, which are not always exact repeats. Equal values may be shown once.

Legend:
truncated CK1δ = target: T1, truncated CK1δ (Homo sapiens, UniProt P48730); test: CK1δ luminescent kinase assay (Kinase Glo kit); type: biochemical; conditions: for IC50: truncated recombinant human CK1δ (aa 1-294), casein substrate, 2 μM ATP, mean ± SE of three independent experiments in duplicate
T1 construct: truncated CK1δ, recombinant human, GST-tagged, aa 1-294, Merck Millipore; GST; purchased Merck Millipore, Merck KGaA, Darmstadt, Germany
T1 sequence (P48730 1-294): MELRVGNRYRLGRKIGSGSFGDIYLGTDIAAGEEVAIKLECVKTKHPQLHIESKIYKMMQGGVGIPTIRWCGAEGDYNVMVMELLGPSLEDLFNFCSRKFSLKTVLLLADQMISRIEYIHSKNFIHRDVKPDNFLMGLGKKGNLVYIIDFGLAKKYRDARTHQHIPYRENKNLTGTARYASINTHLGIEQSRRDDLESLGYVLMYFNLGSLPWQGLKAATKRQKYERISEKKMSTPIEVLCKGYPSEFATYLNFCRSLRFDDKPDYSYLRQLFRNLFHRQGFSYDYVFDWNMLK
Method: The newly synthesized derivatives 1–32 were tested on truncated CK1δ using the luminescent kinase assay Kinase Glo® KIT (Promega Italy S.r.l., Milan, Italy), and the results are reported in Table 1 and Table 2. Derivatives were tested at a fixed dose of 40 μM; then, those showing a residual kinase activity percentage lower than 50% were tested at 10 μM.
The inhibitory activity of synthesized compounds on CK1δ has been carried out following a procedure for a luminescence-based assay (KinaseGlo® kit, Promega Italy Srl, Milan, Italy) already reported in the literature. Luminescent assays were performed in white 96-well plates in a 40 μL final volume. The buffer used is a milliq water solution of 50 mM HEPES (pH 7.5), 1 mM EDTA, 1 mM EGTA, and 15 mM MgCl2. In a typical assay, 10 μL of inhibitor solution (desired concentrations were obtained by diluting in buffer a starting 10 mM solution in DMSO) and 10 μL of enzyme solution (truncated CK1δ, recombinant human, GST-tagged, aa 1-294, Merck Millipore, Merck KGaA, Darmstadt, Germany) were added to the well, followed by 20 μL of assay buffer containing casein substrate (casein solution from bovine milk, 5% in water, Sigma-Aldrich, Merck KGaA, Darmstadt, Germany) and ATP, at a final concentration of 0.05% and 2 μM, respectively. The final enzyme concentration was 6.5 nM. […] After 60 min of incubation at 30 °C, the enzymatic reactions were stopped with the addition of 40 μL of KinaseGlo reagent (Promega Italy Srl, Milan, Italy). The luminescence signal (relative light unit, RLU) was recorded after 10 min at 25 °C using a Tecan Infinite M100. […] IC50 values were evaluated using ten different inhibitor concentrations ranging from 100 to 0.026 μM. Data were analyzed using Excel and GraphPad Prism software (version 8.0).

CK1δ = conditions: compound IV (SR 2890), Figure 1; read-out: CK1δ IC50; cited from earlier work

O=C(Cn1ccc(C(=O)Nc2nc3ccccc3[nH]2)n1)c1ccccc1 [Compound 1, N-(1H-Benzimidazol-2yl)-1-(2-oxo-2-phenylethyl)-1H-pyrazole-3-carboxamide]
IC50 (truncated CK1δ): > 40 µM
melting point: 220 to 221 °C

Cc1ccc2[nH]c(NC(=O)c3ccn(CC(=O)c4ccccc4)n3)nc2c1 [Compound 2, N-(5(6)-Methyl-1H-benzimidazol-2yl)-1-(2-oxo-2-phenylethyl)-1H-pyrazole-3-carboxamide]
IC50 (truncated CK1δ): < 15 µM and 14.6 µM
melting point: 199 to 200 °C

O=C(Cn1ccc(C(=O)Nc2nc3cc(Cl)ccc3[nH]2)n1)c1ccccc1 [Compound 3, N-(5(6)-Chloro-1H-benzimidazol-2yl)-1-(2-oxo-2-phenylethyl)-1H-pyrazole-3-carboxamide]
IC50 (truncated CK1δ): < 15 µM and 1.8 µM
melting point: 200 to 203 °C

COc1ccccc1C(=O)Cn1ccc(C(=O)Nc2nc3ccccc3[nH]2)n1 [Compound 4, N-(1H-Benzimidazol-2yl)-1-(2-(2-methoxyphenyl)-2-oxoethyl)-1H-pyrazole-3-carboxamide]
IC50 (truncated CK1δ): > 40 µM
melting point: 168 to 170 °C

COc1ccccc1C(=O)Cn1ccc(C(=O)Nc2nc3cc(C)ccc3[nH]2)n1 [Compound 5, N-(5(6)-Methyl-1H-benzimidazol-2yl)-1-(2-(2-methoxyphenyl)-2-oxoethyl)-1H-pyrazole-3-carboxamide]
IC50 (truncated CK1δ): > 40 µM
melting point: 201 to 203 °C

COc1ccccc1C(=O)Cn1ccc(C(=O)Nc2nc3cc(Cl)ccc3[nH]2)n1 [Compound 6, N-(5(6)-Chloro-1H-benzimidazol-2yl)-1-(2-(2-methoxyphenyl)-2-oxoethyl)-1H-pyrazole-3-carboxamide]
IC50 (truncated CK1δ): < 15 µM and 13.2 µM
melting point: 219 to 221 °C

O=C(Nc1nc2ccccc2[nH]1)c1cc[nH]n1 [Compound 7, N-(1H-Benzimidazol-2-yl)-1H-pyrazole-3(5)-carboxamide]
IC50 (truncated CK1δ): > 40 µM
melting point: > 300 °C

Cc1ccc2[nH]c(NC(=O)c3cc[nH]n3)nc2c1 [Compound 8, N-(5(6)-Methyl-1H-benzimidazol-2-yl)-1H-pyrazole-3(5)-carboxamide]
IC50 (truncated CK1δ): > 40 µM
melting point: > 300 °C

O=C(Nc1nc2cc(Cl)ccc2[nH]1)c1cc[nH]n1 [Compound 9, N-(5(6)-Chloro-1H-benzimidazol-2-yl)-1H-pyrazole-3(5)-carboxamide]
IC50 (truncated CK1δ): > 40 µM
melting point: > 300 °C

O=C(Nc1nc2cc(C(F)(F)F)ccc2[nH]1)c1cc[nH]n1 [Compound 10, 1H-Pyrazole-N-(5(6)-trifluoromethyl-1H-benzimidazol-2-yl)-3(5)-carboxamide]
IC50 (truncated CK1δ): > 40 µM
melting point: > 300 °C

COc1ccc2[nH]c(NC(=O)c3cc[nH]n3)nc2c1 [Compound 11, N-(5(6)-Methoxy-1H-benzimidazol-2-yl)-1H-pyrazole-3(5)-carboxamide]
IC50 (truncated CK1δ): > 40 µM
melting point: > 300 °C

O=C(Nc1nc2cc([N+](=O)[O-])ccc2[nH]1)c1cc[nH]n1 [Compound 12, N-(5(6)-Nitro-1H-benzimidazol-2-yl)-1H-pyrazole-3(5)-carboxamide]
IC50 (truncated CK1δ): > 40 µM
melting point: > 300 °C

O=C(Cc1cc[nH]n1)Nc1nc2ccccc2[nH]1 [Compound 13, N-(1H-benzimidazol-2-yl)-2-(1H-pyrazol-3(5)-yl)acetamide]
IC50 (truncated CK1δ): 4.21 ± 1.92 µM
melting point: 295 to 297 °C

Cc1ccc2[nH]c(NC(=O)Cc3cc[nH]n3)nc2c1 [Compound 14, N-(5(6)-Methyl-1H-benzimidazol-2-yl)-2-(1H-pyrazol-3(5)-yl)acetamide]
IC50 (truncated CK1δ): 1.64 ± 0.31 µM
melting point: 257 °C (dec.)

O=C(Cc1cc[nH]n1)Nc1nc2cc(Cl)ccc2[nH]1 [Compound 15, N-(5(6)-Cloro-1H-benzimidazol-2-yl)-2-(1H-pyrazol-3(5)-yl)acetamide]
IC50 (truncated CK1δ): 0.485 ± 0.31 µM
melting point: 286 to 288 °C

O=C(Cc1cc[nH]n1)Nc1nc2cc(C(F)(F)F)ccc2[nH]1 [Compound 16, 2-(1H-Pyrazol-3(5)-yl)-N-(5(6)-trifluoromethyl-1H-benzimidazol-2-yl)acetamide]
IC50 (truncated CK1δ): 1.74 ± 0.32 µM
melting point: 275 to 277 °C

COc1ccc2[nH]c(NC(=O)Cc3cc[nH]n3)nc2c1 [Compound 17, N-(5(6)-Methoxy-1H-benzimidazol-2-yl)-2-(1H-pyrazol-3(5)-yl)acetamide]
IC50 (truncated CK1δ): 6.27 ± 0.95 µM
melting point: 239 to 240 °C

O=C(Cc1cc[nH]n1)Nc1nc2cc([N+](=O)[O-])ccc2[nH]1 [Compound 18, N-(5(6)-Nitro-1H-benzimidazol-2-yl)(1H-pyrazol-3(5)-yl)-2-acetamide]
IC50 (truncated CK1δ): 0.12 ± 0.083 µM
melting point: 272 to 274 °C

O=C(Cc1cc[nH]n1)Nc1nc2c([N+](=O)[O-])cccc2[nH]1 [Compound 19, N-(4(7)-Nitro-1H-benzimidazol-2-yl)(1H-pyrazol-3(5)-yl)-2-acetamide]
fold less potent than the regioisomer 18 (CK1δ) (truncated CK1δ; 19 (4-NO2) versus 18 (5-NO2)): 10 fold
IC50 (truncated CK1δ): 1.22 ± 0.23 µM
melting point: 280 to 282 °C

CC(C)(C)c1ccc2[nH]c(NC(=O)Cc3cc[nH]n3)nc2c1 [Compound 20, N-(5(6)-terButyl-1H-benzimidazol-2-yl)(1H-pyrazol-3(5)-yl)-2-acetamide]
IC50 (truncated CK1δ): 1 ± 0.18 µM

O=C(Cc1cc[nH]n1)Nc1nc2cc(OC(F)(F)F)ccc2[nH]1 [Compound 21, 2-(1H-Pyrazol-3(5)-yl)-N-(5(6)-trifluoromethoxy-1H-benzimidazol-2-yl)acetamide]
IC50 (truncated CK1δ): 5.99 ± 0.87 µM
melting point: 270 to 274 °C

O=C(Cc1cc[nH]n1)Nc1nc2cc(Cl)c(Cl)cc2[nH]1 [Compound 22, N-(5,6-Dichloro-1H-benzimidazol-2-yl)-2-(1H-pyrazol-3(5)-yl)acetamide]
IC50 (truncated CK1δ): 0.98 ± 0.35 µM
melting point: > 300 °C

N#Cc1ccc2[nH]c(NC(=O)Cc3cc[nH]n3)nc2c1 [Compound 23, N-(5(6)-Cyano-1H-benzimidazol-2-yl)(1H-pyrazol-(3)5-yl)-2-acetamide]
IC50 (truncated CK1δ): 0.0986 ± 0.0394 µM
melting point: 267 to 268 °C

NC(=O)c1ccc2[nH]c(NC(=O)Cc3cc[nH]n3)nc2c1 [Compound 24]
IC50 (truncated CK1δ): 2.53 ± 0.38 µM
melting point: 290 to 292 °C

NS(=O)(=O)c1ccc2[nH]c(NC(=O)Cc3cc[nH]n3)nc2c1 [Compound 25, 2-(1H-Pyrazol-3(5)-yl)-N-(5(6)-sulfamoyl-1H-benzimidazol-2-yl)acetamide]
IC50 (truncated CK1δ): > 40 µM
melting point: 285 to 287 °C

CNS(=O)(=O)c1ccc2[nH]c(NC(=O)Cc3cc[nH]n3)nc2c1 [Compound 26]
IC50 (truncated CK1δ): < 15 µM and 10.7 µM
melting point: 238 to 240 °C

CC(=O)Nc1ccc2[nH]c(NC(=O)Cc3cc[nH]n3)nc2c1 [Compound 27, N-(5(6)-Acetamido-1H-benzimidazol-2-yl)(1H-pyrazol-3(5)-yl)acetamide]
IC50 (truncated CK1δ): > 40 µM

O=C(Cc1cc[nH]n1)Nc1nc2cc(NC(=O)c3ccccc3)ccc2[nH]1 [Compound 28, N-(2-(2-(1H-Pyrazol-3-yl)acetamido)-1H-benzimidazol-3(5)-yl)benzamide]
IC50 (truncated CK1δ): > 40 µM
melting point: 292 to 293 °C

O=C(Cc1cc[nH]n1)Nc1nc2c(NC(=O)c3ccccc3)cccc2[nH]1 [Compound 29, N-(2-(2-(1H-Pyrazol-3-yl)acetamido)-1H-benzimidazol-4(7)-yl)benzamide]
IC50 (truncated CK1δ): > 40 µM
melting point: 280 °C (dec.)

O=C(Cc1cc[nH]n1)Nc1nc2cc(-n3cncn3)ccc2[nH]1 [Compound 30, N-(5(6)-(1H-1,2,4-triazol-1-yl)-1H-benzimidazol-2-yl)(1H-pyrazol-3(5)-yl)acetamide]
IC50 (truncated CK1δ): < 15 µM and 2.59 µM
melting point: 269 to 271 °C

O=C(Cc1cc[nH]n1)Nc1nc2cc(-c3nnn[nH]3)ccc2[nH]1 [Compound 31, N-(5(6)-(1H-tetrazol-5-yl)-1H-benzimidazol-2-yl)(1H-pyrazol-3(5)-yl)acetamide]
IC50 (truncated CK1δ): < 15 µM and 1.54 µM
melting point: > 300 °C

Cn1c(NC(=O)Cc2cc[nH]n2)nc2ccc(Cl)cc21 [Compound 32, N-(6-Chloro-1-methyl-benzimidazol-2-yl)(1H-pyrazol-3(5)-yl)acetamide]
IC50 (truncated CK1δ): 20.1 ± 7.3 µM

Fc1cccc(-n2cnc3c(NCc4nc5ccc(Cl)cc5[nH]4)nc(N4CCNCC4)nc32)c1 [IV]
IC50 (CK1δ): 0.005 µM
